{"source": "paper PMC7316778", "about": "(Nature Communications, 2020)", "test_in_all_cases": "SelectScreen kinase assay", "key": {"LRRK2 FL": {"biological_target": "LRRK2 FL (Homo sapiens, UniProt Q5S007)", "sequence (Q5S007 whole entry)": "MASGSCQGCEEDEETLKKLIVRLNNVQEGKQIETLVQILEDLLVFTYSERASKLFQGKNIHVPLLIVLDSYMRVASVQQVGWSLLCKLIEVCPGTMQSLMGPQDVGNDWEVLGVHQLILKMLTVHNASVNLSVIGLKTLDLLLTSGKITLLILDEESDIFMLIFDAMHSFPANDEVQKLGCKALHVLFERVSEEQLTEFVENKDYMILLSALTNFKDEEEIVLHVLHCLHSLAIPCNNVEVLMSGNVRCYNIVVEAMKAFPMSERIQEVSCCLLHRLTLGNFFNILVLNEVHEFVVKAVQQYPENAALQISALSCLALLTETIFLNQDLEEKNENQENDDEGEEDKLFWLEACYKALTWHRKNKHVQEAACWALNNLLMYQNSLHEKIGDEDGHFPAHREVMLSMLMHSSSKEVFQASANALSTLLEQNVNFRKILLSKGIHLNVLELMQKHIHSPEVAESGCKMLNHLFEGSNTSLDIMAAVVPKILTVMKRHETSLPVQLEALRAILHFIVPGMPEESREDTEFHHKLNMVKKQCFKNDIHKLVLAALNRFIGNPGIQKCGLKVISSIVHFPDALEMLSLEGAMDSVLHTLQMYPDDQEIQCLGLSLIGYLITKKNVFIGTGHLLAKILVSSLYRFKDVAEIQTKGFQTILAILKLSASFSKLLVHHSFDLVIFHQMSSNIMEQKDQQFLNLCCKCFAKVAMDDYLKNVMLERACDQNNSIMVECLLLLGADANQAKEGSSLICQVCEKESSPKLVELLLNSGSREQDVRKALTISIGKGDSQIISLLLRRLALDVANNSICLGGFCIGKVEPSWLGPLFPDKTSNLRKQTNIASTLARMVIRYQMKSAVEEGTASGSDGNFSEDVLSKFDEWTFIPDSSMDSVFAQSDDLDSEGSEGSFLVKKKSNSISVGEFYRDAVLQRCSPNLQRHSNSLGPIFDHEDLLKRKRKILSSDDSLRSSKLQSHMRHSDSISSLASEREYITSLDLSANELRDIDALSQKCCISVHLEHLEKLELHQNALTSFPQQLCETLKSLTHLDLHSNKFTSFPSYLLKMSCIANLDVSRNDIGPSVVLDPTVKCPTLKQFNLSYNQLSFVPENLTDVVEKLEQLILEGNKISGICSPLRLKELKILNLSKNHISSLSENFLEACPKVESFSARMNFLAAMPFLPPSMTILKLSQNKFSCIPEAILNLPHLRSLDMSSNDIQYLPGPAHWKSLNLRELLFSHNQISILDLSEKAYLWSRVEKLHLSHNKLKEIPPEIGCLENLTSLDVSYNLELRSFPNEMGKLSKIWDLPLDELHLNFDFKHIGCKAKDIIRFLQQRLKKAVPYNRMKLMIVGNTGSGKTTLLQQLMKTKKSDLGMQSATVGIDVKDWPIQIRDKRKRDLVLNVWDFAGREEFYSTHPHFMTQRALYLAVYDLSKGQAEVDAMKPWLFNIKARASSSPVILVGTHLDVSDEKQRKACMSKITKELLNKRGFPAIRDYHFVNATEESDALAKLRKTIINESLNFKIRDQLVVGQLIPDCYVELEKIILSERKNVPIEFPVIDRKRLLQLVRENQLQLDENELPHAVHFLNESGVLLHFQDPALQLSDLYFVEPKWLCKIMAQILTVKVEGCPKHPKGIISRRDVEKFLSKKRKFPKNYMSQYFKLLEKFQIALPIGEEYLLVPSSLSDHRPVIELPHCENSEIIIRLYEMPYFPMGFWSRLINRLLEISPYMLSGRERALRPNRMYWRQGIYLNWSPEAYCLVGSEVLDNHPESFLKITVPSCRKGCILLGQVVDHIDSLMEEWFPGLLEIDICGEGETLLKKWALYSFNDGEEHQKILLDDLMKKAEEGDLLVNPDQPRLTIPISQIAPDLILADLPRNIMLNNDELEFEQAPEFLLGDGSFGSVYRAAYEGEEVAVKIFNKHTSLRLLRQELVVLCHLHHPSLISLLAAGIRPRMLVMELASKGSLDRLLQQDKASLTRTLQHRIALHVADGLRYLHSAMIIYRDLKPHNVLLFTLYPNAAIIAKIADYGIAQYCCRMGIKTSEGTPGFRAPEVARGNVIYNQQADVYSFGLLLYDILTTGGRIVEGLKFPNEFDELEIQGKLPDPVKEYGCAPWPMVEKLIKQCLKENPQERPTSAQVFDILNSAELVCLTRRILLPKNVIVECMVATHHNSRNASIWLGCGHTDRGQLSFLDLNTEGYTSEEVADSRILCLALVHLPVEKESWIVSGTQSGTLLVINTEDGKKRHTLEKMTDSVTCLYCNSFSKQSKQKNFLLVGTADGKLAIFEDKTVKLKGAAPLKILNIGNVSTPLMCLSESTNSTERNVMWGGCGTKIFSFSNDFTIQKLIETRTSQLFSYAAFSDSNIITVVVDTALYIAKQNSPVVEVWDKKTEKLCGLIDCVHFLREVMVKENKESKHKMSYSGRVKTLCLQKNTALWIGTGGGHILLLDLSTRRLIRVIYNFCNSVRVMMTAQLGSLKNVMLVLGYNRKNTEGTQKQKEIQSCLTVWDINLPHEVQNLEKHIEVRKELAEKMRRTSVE", "description": "(§1) Selectivity profiling assays were performed by the Invitrogen SelectScreen™ Services. […] The concentration of ATP was selected to be equal to the KM, unless indicated otherwise."}, "EPHA7": {"biological_target": "EPHA7 (Homo sapiens, UniProt Q15375)", "settings": "1 h, 1 μM WEL028, 1 h preincubation", "description": "as §1"}, "PDGFRB (PDGFR beta)": {"biological_target": "PDGFRB (PDGFR beta) (Homo sapiens, UniProt P09619)", "description": "as §1"}, "HIPK3 (YAK1)": {"biological_target": "HIPK3 (YAK1) (Homo sapiens, UniProt Q9H422)", "description": "as §1"}, "AURKB (Aurora B)": {"biological_target": "AURKB (Aurora B) (Homo sapiens, UniProt Q96GD4)", "sequence (Q96GD4 whole entry)": "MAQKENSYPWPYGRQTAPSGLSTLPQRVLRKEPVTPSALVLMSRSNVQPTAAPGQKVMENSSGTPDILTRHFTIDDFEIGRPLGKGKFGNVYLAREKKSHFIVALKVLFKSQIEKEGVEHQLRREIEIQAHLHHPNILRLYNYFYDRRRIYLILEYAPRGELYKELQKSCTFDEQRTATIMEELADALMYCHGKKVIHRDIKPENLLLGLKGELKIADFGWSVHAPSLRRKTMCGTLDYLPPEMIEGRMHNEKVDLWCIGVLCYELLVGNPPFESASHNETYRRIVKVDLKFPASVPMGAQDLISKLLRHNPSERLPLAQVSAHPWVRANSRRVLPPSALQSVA", "description": "as §1"}, "FLT1 (VEGFR1)": {"biological_target": "FLT1 (VEGFR1) (Homo sapiens, UniProt P17948)", "description": "as §1"}, "MKNK1 (MNK1)": {"biological_target": "MKNK1 (MNK1) (Homo sapiens, UniProt Q9BUB5)", "description": "as §1"}, "NTRK2 (TRKB)": {"biological_target": "NTRK2 (TRKB) (Homo sapiens, UniProt Q16620)", "sequence (Q16620 32-822)": "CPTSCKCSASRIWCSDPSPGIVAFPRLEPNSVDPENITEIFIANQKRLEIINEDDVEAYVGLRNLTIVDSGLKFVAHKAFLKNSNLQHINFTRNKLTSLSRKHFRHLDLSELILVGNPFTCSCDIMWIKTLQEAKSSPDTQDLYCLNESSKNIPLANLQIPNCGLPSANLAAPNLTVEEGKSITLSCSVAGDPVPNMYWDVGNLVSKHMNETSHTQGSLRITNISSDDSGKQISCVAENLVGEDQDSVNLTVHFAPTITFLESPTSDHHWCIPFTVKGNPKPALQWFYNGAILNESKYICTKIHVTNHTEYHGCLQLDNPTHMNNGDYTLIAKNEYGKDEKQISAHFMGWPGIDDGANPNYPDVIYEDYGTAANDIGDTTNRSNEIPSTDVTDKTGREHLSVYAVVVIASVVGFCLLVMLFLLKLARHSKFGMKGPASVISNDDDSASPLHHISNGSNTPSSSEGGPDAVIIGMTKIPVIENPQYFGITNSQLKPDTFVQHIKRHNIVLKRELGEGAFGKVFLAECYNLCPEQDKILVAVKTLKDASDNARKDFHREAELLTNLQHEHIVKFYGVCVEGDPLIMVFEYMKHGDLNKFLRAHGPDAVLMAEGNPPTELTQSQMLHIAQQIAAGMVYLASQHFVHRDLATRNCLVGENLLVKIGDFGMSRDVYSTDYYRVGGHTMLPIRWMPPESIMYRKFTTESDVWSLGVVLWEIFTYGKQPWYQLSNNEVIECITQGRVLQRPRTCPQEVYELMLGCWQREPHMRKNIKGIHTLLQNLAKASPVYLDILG", "description": "as §1"}, "DYRK3": {"biological_target": "DYRK3 (Homo sapiens, UniProt O43781)", "sequence (O43781 whole entry)": "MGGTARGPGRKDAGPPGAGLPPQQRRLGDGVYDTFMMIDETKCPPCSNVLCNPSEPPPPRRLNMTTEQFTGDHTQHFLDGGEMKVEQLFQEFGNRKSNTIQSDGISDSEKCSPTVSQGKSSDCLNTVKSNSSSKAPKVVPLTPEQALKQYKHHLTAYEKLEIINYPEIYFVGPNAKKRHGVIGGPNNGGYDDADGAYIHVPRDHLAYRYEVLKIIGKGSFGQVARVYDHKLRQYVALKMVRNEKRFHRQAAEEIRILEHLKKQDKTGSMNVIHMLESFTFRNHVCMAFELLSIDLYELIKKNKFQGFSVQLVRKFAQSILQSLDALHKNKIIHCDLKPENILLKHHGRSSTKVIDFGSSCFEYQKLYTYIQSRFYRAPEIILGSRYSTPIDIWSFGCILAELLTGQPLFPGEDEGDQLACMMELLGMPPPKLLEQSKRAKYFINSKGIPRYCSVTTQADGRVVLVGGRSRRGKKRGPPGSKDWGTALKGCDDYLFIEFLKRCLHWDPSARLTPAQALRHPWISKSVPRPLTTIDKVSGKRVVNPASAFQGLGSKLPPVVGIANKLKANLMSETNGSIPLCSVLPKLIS", "description": "as §1"}, "RPS6KB1 (p70S6K)": {"biological_target": "RPS6KB1 (p70S6K) (Homo sapiens, UniProt P23443)", "description": "as §1"}, "NLK": {"biological_target": "NLK (Homo sapiens, UniProt Q9UBE8)", "description": "as §1"}, "MAP3K5 (ASK1)": {"biological_target": "T1, MAP3K5 (ASK1) (Homo sapiens, UniProt Q99683)", "T1 sequence (Q99683 1-1374)": "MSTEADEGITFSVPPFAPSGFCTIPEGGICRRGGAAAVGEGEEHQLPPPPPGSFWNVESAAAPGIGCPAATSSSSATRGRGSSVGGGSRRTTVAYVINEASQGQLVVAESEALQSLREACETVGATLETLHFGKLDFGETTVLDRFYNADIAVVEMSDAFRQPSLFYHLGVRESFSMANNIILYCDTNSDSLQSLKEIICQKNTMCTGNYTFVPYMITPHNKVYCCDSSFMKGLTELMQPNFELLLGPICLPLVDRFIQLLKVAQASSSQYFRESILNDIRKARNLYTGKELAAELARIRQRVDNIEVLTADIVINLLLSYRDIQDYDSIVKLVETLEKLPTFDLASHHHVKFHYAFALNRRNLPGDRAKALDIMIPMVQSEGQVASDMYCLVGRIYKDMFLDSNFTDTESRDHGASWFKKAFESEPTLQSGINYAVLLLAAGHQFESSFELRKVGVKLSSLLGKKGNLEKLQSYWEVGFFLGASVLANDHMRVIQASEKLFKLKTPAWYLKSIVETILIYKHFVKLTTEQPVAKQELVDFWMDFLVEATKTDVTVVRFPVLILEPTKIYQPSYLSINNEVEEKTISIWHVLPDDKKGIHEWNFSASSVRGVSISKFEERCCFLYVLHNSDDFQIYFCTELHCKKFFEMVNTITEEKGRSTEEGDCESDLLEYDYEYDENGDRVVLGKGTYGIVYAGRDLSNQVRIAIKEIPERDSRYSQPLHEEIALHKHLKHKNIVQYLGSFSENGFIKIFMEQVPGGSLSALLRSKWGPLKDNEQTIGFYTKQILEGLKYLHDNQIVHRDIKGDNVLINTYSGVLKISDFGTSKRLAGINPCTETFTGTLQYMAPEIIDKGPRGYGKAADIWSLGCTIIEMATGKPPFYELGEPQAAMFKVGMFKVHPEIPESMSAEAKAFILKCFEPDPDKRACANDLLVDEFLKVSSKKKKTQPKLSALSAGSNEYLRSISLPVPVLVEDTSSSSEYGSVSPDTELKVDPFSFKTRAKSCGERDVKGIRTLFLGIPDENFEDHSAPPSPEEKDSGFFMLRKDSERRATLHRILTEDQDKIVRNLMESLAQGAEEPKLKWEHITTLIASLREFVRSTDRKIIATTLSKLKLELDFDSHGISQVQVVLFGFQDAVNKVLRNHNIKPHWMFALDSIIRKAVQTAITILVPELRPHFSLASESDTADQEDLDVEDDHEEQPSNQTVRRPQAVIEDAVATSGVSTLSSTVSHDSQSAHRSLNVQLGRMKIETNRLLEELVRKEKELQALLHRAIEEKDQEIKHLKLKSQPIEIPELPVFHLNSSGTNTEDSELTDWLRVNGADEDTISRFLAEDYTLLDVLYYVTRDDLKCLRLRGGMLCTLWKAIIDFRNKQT", "description": "as §1"}, "TNK2 (ACK) [1]": {"biological_target": "TNK2 (ACK) (Homo sapiens, UniProt Q07912)"}, "TNK2 (ACK) [2]": {"system": "TNK2 (ACK)", "settings": "IC50 on that kinase divided by IC50 on FES^S700C"}, "RPS6KA1 (RSK1)": {"biological_target": "RPS6KA1 (RSK1) (Homo sapiens, UniProt Q15418)", "sequence (Q15418 whole entry)": "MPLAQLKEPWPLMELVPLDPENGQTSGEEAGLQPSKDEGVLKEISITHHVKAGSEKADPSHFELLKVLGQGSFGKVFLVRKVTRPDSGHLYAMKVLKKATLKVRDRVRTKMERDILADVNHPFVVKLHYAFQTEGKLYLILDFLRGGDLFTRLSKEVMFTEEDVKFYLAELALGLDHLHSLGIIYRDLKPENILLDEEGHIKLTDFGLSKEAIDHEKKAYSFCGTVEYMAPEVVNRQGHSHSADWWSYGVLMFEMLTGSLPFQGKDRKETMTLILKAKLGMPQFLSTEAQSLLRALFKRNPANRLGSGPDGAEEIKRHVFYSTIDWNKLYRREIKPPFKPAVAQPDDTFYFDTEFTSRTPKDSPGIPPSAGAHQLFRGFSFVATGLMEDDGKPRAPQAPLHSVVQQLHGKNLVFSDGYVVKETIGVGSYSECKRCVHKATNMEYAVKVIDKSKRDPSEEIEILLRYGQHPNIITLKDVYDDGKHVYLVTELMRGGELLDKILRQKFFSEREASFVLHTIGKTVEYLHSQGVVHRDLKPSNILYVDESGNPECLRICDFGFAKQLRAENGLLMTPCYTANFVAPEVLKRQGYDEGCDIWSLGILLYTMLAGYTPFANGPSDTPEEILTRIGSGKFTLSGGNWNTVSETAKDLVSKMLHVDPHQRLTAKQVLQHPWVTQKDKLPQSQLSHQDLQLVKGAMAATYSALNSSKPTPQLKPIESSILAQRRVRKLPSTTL", "description": "as §1"}, "[3]": {"settings": "1 h, 1 μM WEL028, 1 h preincubation"}}, "note": "Values joined by “and” are separate entries in the source; they are usually repeats but may differ in a detail not shown here. Equal values may be shown once. Read-outs that look alike come from different tables or passages of the source.", "data": [{"smiles": "C#CCOc1ccc(Nc2ncc(Cl)c(Nc3ccccc3NC(=O)C=C)n2)c(OC)c1", "note": "[Compound 6]", "values": [{"measurement": "inhibition at 1 µM", "setting": "LRRK2 FL; [3]", "result": 97, "unit": "%"}, {"measurement": "inhibition at 10 µM", "setting": "LRRK2 FL; 1 h, log[inhibitor] (M) -5.00, Adapta, ATP Km app", "result": 100, "unit": "%"}, {"measurement": "inhibition at 3.311 µM", "setting": "LRRK2 FL; 1 h, log[inhibitor] (M) -5.48, Adapta, ATP Km app", "result": 100, "unit": "%"}, {"measurement": "inhibition at 1.122 µM", "setting": "LRRK2 FL; 1 h, log[inhibitor] (M) -5.95, Adapta, ATP Km app", "result": 100, "unit": "%"}, {"measurement": "inhibition at 0.3715 µM", "setting": "LRRK2 FL; 1 h, log[inhibitor] (M) -6.43, Adapta, ATP Km app", "result": 100, "unit": "%"}, {"measurement": "inhibition at 0.123 µM", "setting": "LRRK2 FL; 1 h, log[inhibitor] (M) -6.91, Adapta, ATP Km app", "result": 86, "unit": "%"}, {"measurement": "inhibition at 0.04074 µM", "setting": "LRRK2 FL; 1 h, log[inhibitor] (M) -7.39, Adapta, ATP Km app", "result": 39, "unit": "%"}, {"measurement": "Inhibition at 1 µM (%)", "setting": "LRRK2 FL; LRRK2 FL, 1 µM, Adapta, ATP Km app, listed as WEL028, 1 µM", "result": 96, "unit": "%"}, {"measurement": "inhibition at 1 µM", "setting": "LRRK2 FL; read-out: Inhibition at 1 µM (%), LRRK2 FL, 1 µM, Adapta, ATP Km app", "result": 98, "unit": "%"}, {"measurement": "inhibition at 1 µM", "setting": "EPHA7", "result": 4, "unit": "%"}, {"measurement": "inhibition at 1 µM", "setting": "PDGFRB (PDGFR beta); [3]", "result": 22, "unit": "%"}, {"measurement": "Inhibition at 1 µM (%)", "setting": "PDGFRB (PDGFR beta); PDGFRB (PDGFR beta), 1 µM, ZLYTE, ATP Km app, listed as WEL028, 1 µM", "result": 23, "unit": "%"}, {"measurement": "inhibition at 1 µM", "setting": "PDGFRB (PDGFR beta); read-out: Inhibition at 1 µM (%), PDGFRB (PDGFR beta), 1 µM, ZLYTE, ATP Km app", "result": 21, "unit": "%"}, {"measurement": "inhibition at 1 µM", "setting": "HIPK3 (YAK1); [3]", "result": -3, "unit": "%"}, {"measurement": "Inhibition at 1 µM (%)", "setting": "HIPK3 (YAK1); HIPK3 (YAK1), 1 µM, ZLYTE, ATP Km app", "result": -11, "unit": "%"}, {"measurement": "inhibition at 1 µM", "setting": "AURKB (Aurora B); [3]", "result": 37, "unit": "%"}, {"measurement": "Inhibition at 1 µM (%)", "setting": "AURKB (Aurora B); AURKB (Aurora B), 1 µM, ZLYTE, ATP Km app, listed as WEL028, 1 µM", "result": 32, "unit": "%"}, {"measurement": "inhibition at 1 µM", "setting": "AURKB (Aurora B); read-out: Inhibition at 1 µM (%), AURKB (Aurora B), 1 µM, ZLYTE, ATP Km app", "result": 41, "unit": "%"}, {"measurement": "inhibition at 1 µM", "setting": "FLT1 (VEGFR1); [3]", "result": 36, "unit": "%"}, {"measurement": "Inhibition at 1 µM (%)", "setting": "FLT1 (VEGFR1); FLT1 (VEGFR1), 1 µM, ZLYTE, ATP Km app, listed as WEL028, 1 µM", "result": 31, "unit": "%"}, {"measurement": "inhibition at 1 µM", "setting": "FLT1 (VEGFR1); read-out: Inhibition at 1 µM (%), FLT1 (VEGFR1), 1 µM, ZLYTE, ATP Km app", "result": 42, "unit": "%"}, {"measurement": "inhibition at 1 µM", "setting": "MKNK1 (MNK1); [3]", "result": 13, "unit": "%"}, {"measurement": "Inhibition at 1 µM (%)", "setting": "MKNK1 (MNK1); MKNK1 (MNK1), 1 µM, ZLYTE, ATP Km app", "result": 21, "unit": "%"}, {"measurement": "inhibition at 1 µM", "setting": "NTRK2 (TRKB); [3]", "result": 5, "unit": "%"}, {"measurement": "Inhibition at 1 µM (%)", "setting": "NTRK2 (TRKB); NTRK2 (TRKB), 1 µM, ZLYTE, ATP Km app, listed as WEL028, 1 µM", "result": "0% and 9%"}, {"measurement": "inhibition at 1 µM", "setting": "DYRK3; [3]", "result": 2, "unit": "%"}, {"measurement": "Inhibition at 1 µM (%)", "setting": "DYRK3; DYRK3, 1 µM, ZLYTE, ATP Km app, listed as WEL028, 1 µM", "result": "0% and 4%"}, {"measurement": "Inhibition at 1 µM (%)", "setting": "RPS6KB1 (p70S6K); 1 µM, ZLYTE, ATP Km app", "result": 15, "unit": "%"}, {"measurement": "inhibition at 1 µM", "setting": "RPS6KB1 (p70S6K); [3]", "result": 4, "unit": "%"}, {"measurement": "inhibition at 1 µM", "setting": "NLK; [3]", "result": 3, "unit": "%"}, {"measurement": "inhibition at 1 µM", "setting": "NLK; read-out: Inhibition at 1 µM (%), NLK, 1 µM, LanthaScreen Binding", "result": 4, "unit": "%"}, {"measurement": "inhibition at 1 µM", "setting": "MAP3K5 (ASK1); [3]", "result": 6, "unit": "%"}, {"measurement": "Inhibition at 1 µM (%)", "setting": "MAP3K5 (ASK1); MAP3K5 (ASK1), 1 µM, LanthaScreen Binding, listed as WEL028, 1 µM", "result": 8, "unit": "%"}, {"measurement": "inhibition at 1 µM", "setting": "MAP3K5 (ASK1); read-out: Inhibition at 1 µM (%), MAP3K5 (ASK1), 1 µM, LanthaScreen Binding", "result": 5, "unit": "%"}, {"measurement": "IC50", "setting": "TNK2 (ACK) [1]", "result": 316, "unit": "nM"}, {"measurement": "Inhibition at 1 µM (%)", "setting": "TNK2 (ACK) [1]; 1 µM, LanthaScreen Binding, listed as WEL028, 1 µM", "result": 72, "unit": "%"}, {"measurement": "inhibition at 1 µM", "setting": "TNK2 (ACK) [1]; [3]", "result": 73, "unit": "%"}, {"measurement": "inhibition at 10 µM", "setting": "TNK2 (ACK) [1]; 1 h, log[inhibitor] (M) -5.00, LanthaScreen Binding", "result": 46, "unit": "%"}, {"measurement": "inhibition at 3.311 µM", "setting": "TNK2 (ACK) [1]; 1 h, log[inhibitor] (M) -5.48, LanthaScreen Binding", "result": 70, "unit": "%"}, {"measurement": "inhibition at 1.122 µM", "setting": "TNK2 (ACK) [1]; 1 h, log[inhibitor] (M) -5.95, LanthaScreen Binding", "result": 77, "unit": "%"}, {"measurement": "inhibition at 0.3715 µM", "setting": "TNK2 (ACK) [1]; 1 h, log[inhibitor] (M) -6.43, LanthaScreen Binding", "result": 48, "unit": "%"}, {"measurement": "inhibition at 0.123 µM", "setting": "TNK2 (ACK) [1]; 1 h, log[inhibitor] (M) -6.91, LanthaScreen Binding", "result": 25, "unit": "%"}, {"measurement": "inhibition at 0.04074 µM", "setting": "TNK2 (ACK) [1]; 1 h, log[inhibitor] (M) -7.39, LanthaScreen Binding", "result": 5, "unit": "%"}, {"measurement": "inhibition at 1 µM", "setting": "TNK2 (ACK) [1]; read-out: Inhibition at 1 µM (%), 1 µM, LanthaScreen Binding", "result": 74, "unit": "%"}, {"measurement": "Apparent fold selectivity", "setting": "TNK2 (ACK) [2]", "result": 76, "unit": "fold"}, {"measurement": "Inhibition at 1 µM (%)", "setting": "RPS6KA1 (RSK1); 1 µM, ZLYTE, ATP Km app, listed as WEL028, 1 µM", "result": "0% and 10%"}, {"measurement": "inhibition at 1 µM", "setting": "RPS6KA1 (RSK1); [3]", "result": 5, "unit": "%"}]}]}
